In ChEMBL document CHEMBL5465560, “Selectivity Literature for EUbOPEN Chemogenomic Library” (2024):

How the values were obtained:
[1] = biological target: T1, Tyrosine-protein kinase JAK3 (Homo sapiens) (UniProt P52333); assay: Selectivity interaction (KinomeScan (DiscoverX)) EUB0000595a JAK3; settings: at 10 µM
T1 sequence (whole entry): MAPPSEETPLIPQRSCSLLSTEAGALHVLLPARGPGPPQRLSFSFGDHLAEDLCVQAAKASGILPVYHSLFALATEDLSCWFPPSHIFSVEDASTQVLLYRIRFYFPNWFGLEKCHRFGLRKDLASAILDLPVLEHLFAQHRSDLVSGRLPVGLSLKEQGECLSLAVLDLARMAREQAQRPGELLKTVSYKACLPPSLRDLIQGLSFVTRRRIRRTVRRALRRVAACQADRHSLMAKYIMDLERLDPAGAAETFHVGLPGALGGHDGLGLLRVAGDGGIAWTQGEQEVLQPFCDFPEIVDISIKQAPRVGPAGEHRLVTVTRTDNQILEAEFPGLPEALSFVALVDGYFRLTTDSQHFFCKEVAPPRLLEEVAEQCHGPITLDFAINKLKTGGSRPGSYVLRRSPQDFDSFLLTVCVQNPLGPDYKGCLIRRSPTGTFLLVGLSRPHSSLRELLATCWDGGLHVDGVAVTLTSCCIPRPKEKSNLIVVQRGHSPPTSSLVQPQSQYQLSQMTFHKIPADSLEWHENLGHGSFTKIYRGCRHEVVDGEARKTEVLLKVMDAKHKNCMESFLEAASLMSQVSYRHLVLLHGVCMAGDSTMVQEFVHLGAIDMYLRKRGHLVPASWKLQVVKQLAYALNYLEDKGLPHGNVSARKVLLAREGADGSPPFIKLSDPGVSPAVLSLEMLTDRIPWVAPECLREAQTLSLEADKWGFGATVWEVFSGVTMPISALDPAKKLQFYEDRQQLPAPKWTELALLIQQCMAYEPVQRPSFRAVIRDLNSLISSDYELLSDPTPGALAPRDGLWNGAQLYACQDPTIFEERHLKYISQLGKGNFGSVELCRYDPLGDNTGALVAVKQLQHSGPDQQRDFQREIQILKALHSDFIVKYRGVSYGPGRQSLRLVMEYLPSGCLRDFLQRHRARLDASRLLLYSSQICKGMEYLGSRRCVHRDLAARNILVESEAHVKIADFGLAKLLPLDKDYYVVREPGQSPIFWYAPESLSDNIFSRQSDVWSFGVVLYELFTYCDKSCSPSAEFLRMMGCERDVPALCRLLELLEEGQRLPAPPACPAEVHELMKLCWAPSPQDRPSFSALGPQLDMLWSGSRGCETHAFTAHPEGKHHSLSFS

[2] = biological target: T2, Serine/threonine-protein kinase PLK4 (Homo sapiens) (UniProt O00444); assay: Selectivity interaction (Kinase panel (DSF assay)) EUB0001559a PLK4
T2 sequence (whole entry): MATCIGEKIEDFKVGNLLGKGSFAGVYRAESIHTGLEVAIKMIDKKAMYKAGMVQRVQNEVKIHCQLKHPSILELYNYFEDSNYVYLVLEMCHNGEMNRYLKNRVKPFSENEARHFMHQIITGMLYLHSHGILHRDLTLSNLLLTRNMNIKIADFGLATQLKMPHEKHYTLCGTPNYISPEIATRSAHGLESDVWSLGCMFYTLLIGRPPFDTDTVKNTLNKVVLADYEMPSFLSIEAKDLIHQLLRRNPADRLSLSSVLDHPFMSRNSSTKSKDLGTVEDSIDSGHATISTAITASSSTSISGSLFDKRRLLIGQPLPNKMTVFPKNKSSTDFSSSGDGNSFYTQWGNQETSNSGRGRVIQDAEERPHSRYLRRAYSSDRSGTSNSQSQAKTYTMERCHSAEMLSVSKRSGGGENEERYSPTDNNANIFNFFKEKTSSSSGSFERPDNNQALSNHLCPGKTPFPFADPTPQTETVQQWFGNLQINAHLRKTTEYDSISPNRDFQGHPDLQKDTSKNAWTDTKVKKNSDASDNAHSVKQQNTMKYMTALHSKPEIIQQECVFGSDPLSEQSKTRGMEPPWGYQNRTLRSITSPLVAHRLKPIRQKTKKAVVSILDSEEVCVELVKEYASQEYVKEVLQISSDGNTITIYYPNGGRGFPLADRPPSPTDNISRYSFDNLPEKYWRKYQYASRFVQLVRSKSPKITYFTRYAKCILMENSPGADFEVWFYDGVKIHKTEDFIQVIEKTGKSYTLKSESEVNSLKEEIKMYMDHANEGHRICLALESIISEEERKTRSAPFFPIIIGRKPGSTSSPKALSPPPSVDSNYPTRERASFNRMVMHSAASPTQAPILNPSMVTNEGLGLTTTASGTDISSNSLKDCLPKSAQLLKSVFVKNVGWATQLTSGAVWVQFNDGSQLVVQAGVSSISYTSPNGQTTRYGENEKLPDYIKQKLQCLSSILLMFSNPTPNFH

[3] = biological target: Leucine-rich repeat serine/threonine-protein kinase 2 (Homo sapiens, UniProt Q5S007); assay: Selectivity interaction (Enzymatic assay) EUB0001632a LRRK2
Sequence of Leucine-rich repeat serine/threonine-protein kinase 2 (Q5S007 whole entry): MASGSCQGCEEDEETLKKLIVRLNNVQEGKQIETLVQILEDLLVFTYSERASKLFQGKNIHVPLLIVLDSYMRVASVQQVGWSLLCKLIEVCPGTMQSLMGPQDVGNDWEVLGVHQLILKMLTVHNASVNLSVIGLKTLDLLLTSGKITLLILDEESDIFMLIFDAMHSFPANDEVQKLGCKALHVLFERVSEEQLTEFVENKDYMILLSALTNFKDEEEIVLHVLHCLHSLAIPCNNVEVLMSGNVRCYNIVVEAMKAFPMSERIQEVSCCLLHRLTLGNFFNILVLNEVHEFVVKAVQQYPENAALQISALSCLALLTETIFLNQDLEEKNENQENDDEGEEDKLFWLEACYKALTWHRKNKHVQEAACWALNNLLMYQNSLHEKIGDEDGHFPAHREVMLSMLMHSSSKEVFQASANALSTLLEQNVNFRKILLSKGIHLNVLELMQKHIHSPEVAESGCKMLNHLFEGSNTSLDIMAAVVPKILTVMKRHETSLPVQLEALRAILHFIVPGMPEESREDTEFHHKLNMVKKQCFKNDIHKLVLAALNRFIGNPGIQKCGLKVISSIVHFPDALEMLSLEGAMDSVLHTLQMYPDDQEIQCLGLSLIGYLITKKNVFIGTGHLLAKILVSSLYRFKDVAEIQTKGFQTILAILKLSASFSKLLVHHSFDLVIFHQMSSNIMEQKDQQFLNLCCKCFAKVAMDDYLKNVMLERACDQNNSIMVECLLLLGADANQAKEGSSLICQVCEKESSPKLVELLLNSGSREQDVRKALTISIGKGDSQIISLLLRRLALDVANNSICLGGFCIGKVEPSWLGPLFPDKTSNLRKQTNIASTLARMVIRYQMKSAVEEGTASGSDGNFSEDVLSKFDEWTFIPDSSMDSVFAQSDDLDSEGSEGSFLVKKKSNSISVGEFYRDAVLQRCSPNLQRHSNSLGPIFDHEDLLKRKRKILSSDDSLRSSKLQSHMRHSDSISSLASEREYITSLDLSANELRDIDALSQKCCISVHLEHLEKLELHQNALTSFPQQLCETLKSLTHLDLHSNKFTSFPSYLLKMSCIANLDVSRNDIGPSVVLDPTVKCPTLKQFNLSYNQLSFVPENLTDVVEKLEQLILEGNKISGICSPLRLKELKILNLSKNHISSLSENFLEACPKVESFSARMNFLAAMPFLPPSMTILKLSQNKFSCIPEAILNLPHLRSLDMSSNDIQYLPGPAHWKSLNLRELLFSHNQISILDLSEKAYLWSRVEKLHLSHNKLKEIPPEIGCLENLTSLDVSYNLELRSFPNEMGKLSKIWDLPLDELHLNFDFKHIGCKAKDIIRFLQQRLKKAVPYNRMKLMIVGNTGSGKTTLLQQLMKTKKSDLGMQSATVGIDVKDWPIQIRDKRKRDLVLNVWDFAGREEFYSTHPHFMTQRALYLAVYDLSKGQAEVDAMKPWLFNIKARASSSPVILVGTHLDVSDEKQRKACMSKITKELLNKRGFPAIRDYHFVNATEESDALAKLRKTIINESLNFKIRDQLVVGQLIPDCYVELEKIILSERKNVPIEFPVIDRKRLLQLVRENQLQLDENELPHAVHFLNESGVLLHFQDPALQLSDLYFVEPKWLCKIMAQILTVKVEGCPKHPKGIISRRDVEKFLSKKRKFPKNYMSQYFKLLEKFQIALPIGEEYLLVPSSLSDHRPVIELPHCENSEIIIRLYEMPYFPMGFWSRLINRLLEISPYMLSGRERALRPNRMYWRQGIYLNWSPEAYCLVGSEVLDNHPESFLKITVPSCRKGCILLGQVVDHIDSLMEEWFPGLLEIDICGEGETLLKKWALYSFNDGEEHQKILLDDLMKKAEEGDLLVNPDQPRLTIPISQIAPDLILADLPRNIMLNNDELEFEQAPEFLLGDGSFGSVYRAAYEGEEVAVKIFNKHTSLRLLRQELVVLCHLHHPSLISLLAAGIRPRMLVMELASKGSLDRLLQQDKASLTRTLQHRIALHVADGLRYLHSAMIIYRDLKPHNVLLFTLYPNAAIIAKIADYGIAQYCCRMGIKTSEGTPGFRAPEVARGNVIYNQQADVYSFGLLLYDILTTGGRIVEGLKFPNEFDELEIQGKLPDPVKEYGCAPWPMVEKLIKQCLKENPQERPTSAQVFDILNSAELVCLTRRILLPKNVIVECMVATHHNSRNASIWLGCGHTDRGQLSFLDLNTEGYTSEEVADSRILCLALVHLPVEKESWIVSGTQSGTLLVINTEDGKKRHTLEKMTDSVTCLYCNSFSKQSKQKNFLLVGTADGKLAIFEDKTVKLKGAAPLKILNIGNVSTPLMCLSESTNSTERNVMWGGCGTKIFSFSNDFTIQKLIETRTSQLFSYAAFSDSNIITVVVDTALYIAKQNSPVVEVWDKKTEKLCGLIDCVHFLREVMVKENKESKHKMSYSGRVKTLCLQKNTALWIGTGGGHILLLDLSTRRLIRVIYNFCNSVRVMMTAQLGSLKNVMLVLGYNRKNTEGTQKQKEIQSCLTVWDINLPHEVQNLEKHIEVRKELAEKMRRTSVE

[4] = biological target: Serine/threonine-protein kinase Nek7 (Homo sapiens) (UniProt Q8TDX7); assay: Selectivity interaction (KinomeScan (DiscoverX)) EUB0001619a NEK7; settings: at 1 µM
Sequence of Serine/threonine-protein kinase Nek7 (Homo sapiens) (Q8TDX7 whole entry, looked up): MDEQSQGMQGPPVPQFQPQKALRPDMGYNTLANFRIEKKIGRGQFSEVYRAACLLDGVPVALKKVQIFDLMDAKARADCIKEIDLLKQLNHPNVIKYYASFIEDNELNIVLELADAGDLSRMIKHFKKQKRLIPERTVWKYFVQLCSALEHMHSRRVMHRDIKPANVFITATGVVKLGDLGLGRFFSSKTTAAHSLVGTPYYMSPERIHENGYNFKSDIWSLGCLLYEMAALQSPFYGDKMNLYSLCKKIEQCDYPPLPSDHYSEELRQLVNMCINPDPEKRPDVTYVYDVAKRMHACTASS

[5] = biological target: Tyrosine-protein kinase FRK (Homo sapiens) (UniProt P42685); assay: Selectivity interaction (KinomeScan (DiscoverX)) EUB0000618a FRK; settings: at 10 µM
Sequence of Tyrosine-protein kinase FRK (Homo sapiens) (P42685 whole entry): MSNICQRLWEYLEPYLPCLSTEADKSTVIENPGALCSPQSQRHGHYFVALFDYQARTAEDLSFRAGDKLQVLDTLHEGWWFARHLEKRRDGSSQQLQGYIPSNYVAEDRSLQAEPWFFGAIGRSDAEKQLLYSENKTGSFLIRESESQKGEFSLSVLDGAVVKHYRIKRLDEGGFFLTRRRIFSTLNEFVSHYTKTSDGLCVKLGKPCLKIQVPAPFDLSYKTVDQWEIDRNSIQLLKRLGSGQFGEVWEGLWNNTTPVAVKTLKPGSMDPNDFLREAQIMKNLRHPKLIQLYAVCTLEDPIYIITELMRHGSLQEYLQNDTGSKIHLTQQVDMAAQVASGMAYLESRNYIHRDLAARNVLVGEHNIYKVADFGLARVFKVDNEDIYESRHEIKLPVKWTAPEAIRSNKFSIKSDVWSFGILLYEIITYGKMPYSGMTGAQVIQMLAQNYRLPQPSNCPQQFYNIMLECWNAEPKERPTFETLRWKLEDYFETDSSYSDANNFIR

[6] = biological target: T3, Testis-specific serine/threonine-protein kinase 3 (Homo sapiens) (UniProt Q96PN8); assay: Selectivity interaction (Kinase panel (Invitrogen)) EUB0000639a TSSK3; settings: at 200 nM
T3 sequence (whole entry): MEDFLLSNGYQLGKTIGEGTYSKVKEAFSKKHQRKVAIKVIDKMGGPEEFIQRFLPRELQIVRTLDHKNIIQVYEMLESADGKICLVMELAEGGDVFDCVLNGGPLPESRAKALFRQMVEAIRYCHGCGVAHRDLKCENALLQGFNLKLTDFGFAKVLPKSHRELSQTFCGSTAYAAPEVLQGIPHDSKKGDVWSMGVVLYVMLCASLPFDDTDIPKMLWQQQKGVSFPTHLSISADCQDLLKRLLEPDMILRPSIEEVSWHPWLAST

[7] = biological target: Activin receptor type-2B (Homo sapiens) (UniProt Q13705); assay: Selectivity interaction (Ambit KINOMEscan and KiNATiv profiling in Jurkat cells) EUB0000090b ACVR2B; assay type: cell-based; settings: at 1 µM
Sequence of Activin receptor type-2B (Homo sapiens) (Q13705 whole entry): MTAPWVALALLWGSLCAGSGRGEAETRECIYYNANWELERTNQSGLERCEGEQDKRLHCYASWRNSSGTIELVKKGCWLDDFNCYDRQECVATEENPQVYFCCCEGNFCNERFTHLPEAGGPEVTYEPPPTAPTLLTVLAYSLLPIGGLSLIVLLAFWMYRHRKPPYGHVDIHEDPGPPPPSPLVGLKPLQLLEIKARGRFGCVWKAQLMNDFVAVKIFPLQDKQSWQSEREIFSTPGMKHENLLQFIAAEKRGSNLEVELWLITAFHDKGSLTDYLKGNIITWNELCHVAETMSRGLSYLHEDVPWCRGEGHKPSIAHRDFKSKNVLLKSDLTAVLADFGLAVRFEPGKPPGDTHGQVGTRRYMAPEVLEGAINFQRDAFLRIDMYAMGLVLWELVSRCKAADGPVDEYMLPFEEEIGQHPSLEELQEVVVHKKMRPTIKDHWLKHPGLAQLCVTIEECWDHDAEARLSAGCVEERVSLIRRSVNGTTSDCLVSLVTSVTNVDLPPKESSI

Work on `COCC(=O)NC/C=C/c1ccc2ncnc(Nc3ccc(Oc4ccc(C)nc4)c(C)c3)c2c1` [CP-724714] yielded a % of control [1] of 100%.

`CN(C(=O)c1cnn2cccnc12)c1cc2c(cc1N1CCOCC1)C(=O)N(C[C@@H](F)C(C)(C)O)C2` showed a dTM [2] of -0.4 K.

Molecule `Cn1cc(-n2cnc3c(NCc4nc5cc(Cl)c(Cl)cc5[nH]4)nc(N4CCOCC4)nc32)cn1` has an IC50 [3] greater than 10 µM.

For `N#Cc1cccc(-c2c[nH]c3ncnc(N4CCOCC4)c23)c1`, the % of control [4] was 100%.

Work on `O[C@H]1CC[C@H](Nc2ncc3nc(Nc4c(F)cc(F)cc4F)n([C@H]4CCOC4)c3n2)CC1` yielded a % of control [5] of 100%.

With `CC[C@@H]1[C@H](F)C(=O)N[C@@H]1COc1nccc2cc(C(N)=O)c(OC)cc12` [ZIMLOVISERTIB] the % of inhibition [6] was 16.3%.

`CN(C)C/C=C/C(=O)Nc1ccc(C(=O)N2CCCC(Nc3ncc(Cl)c(-c4c[nH]c5ccccc45)n3)C2)cc1` (configuration not stated) gave a % of control [7] of 77%.
